Assay results reported in paper PMC11062922 (Nature Chemical Biology, 2023).

Assays:
ABL1 = ABL1 (Homo sapiens, UniProt P00519); assay: Kinobeads two-dose competition binding: ABL1; conditions: sheet CATDS matrix 2; Gene Name ABL1
ACAD11 = molecular target: T1, ACAD11 (Homo sapiens, UniProt Q709F0); assay: Kinobeads two-dose competition binding: ACAD11; conditions: sheet CATDS matrix 2; Gene Name ACAD11
T1 construct: endogenous in cells
T1 sequence (Q709F0 1-780): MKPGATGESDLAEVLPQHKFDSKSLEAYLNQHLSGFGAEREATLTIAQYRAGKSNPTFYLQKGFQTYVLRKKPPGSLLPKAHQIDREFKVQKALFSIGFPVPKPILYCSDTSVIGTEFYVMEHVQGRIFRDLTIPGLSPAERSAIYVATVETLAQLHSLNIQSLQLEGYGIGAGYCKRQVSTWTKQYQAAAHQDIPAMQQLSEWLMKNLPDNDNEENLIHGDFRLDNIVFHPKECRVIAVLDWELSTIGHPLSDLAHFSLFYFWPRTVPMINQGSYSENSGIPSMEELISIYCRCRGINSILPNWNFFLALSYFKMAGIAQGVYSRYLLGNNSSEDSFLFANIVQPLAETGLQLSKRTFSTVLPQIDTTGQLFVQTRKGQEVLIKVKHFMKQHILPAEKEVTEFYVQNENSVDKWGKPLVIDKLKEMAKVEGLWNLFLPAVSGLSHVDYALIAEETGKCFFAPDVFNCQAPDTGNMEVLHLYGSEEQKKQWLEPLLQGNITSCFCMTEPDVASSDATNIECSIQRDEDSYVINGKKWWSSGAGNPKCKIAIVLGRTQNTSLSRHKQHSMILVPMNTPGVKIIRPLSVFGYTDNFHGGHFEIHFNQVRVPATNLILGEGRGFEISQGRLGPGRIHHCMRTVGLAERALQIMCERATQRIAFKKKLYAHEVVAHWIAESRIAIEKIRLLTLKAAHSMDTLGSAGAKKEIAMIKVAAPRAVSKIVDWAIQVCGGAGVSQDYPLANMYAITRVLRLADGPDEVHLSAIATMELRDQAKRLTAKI

ABL2 = molecular target: T2, ABL2 (Homo sapiens, UniProt P42684); assay: Kinobeads two-dose competition binding: ABL2; conditions: sheet CATDS matrix 2; Gene Name ABL2
T2 construct: endogenous in cells

AAK1 = molecular target: T3, AAK1 (Homo sapiens, UniProt Q2M2I8); assay: Kinobeads two-dose competition binding: AAK1; conditions: for CATDS: sheet CATDS matrix 2, Gene Name AAK1; for potency estimated from few doses: sheet "Kinobeads Drugmatrix - all", unit inferred, same values below 1000 recur in sheet "nanomolar", read-out: Kinobeads Drugmatrix - all: apparent Kd, AAK1;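 for all read-outs here: kinobeads competition pulldown from cell lysate, compound preincubated 45 min at 4 °C, bead-bound protein measured by label-free mass spectrometry against DMSO vehicle control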
T3 construct: to maximize the representation of endogenous proteins; endogenous in cells

ACOX1 = molecular target: T4, ACOX1 (Homo sapiens, UniProt Q15067); assay: Kinobeads two-dose competition binding: ACOX1; conditions: for CATDS: sheet CATDS matrix 2, Gene Name ACOX1;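 for all read-outs here: competition of compounds with immobilized broad-spectrum kinase inhibitor beads in cell lysate at 100 and 1,000 nM, 45 min at 4 °C, bead-bound protein quantified by label-free MS versus DMSO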
T4 construct: endogenous in cells
T4 sequence (Q15067 1-660): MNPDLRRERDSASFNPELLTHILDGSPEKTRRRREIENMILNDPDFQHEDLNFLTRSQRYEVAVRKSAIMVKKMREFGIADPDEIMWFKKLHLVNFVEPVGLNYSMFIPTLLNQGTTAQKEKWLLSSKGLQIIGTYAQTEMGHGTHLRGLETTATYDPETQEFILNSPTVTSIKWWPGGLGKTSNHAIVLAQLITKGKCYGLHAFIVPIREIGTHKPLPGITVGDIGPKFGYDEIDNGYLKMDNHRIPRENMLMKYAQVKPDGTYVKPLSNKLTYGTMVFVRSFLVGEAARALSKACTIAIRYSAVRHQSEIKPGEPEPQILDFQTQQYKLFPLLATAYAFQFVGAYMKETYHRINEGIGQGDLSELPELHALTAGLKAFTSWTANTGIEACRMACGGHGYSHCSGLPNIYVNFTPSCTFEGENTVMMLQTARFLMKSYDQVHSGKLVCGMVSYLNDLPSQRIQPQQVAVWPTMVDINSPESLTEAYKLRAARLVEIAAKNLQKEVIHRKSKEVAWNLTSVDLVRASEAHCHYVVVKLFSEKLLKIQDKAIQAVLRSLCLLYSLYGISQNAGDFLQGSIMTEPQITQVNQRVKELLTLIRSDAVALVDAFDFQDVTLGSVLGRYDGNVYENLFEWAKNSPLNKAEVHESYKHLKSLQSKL

ABL1, sequence (P00519 28-1130 limits assumed): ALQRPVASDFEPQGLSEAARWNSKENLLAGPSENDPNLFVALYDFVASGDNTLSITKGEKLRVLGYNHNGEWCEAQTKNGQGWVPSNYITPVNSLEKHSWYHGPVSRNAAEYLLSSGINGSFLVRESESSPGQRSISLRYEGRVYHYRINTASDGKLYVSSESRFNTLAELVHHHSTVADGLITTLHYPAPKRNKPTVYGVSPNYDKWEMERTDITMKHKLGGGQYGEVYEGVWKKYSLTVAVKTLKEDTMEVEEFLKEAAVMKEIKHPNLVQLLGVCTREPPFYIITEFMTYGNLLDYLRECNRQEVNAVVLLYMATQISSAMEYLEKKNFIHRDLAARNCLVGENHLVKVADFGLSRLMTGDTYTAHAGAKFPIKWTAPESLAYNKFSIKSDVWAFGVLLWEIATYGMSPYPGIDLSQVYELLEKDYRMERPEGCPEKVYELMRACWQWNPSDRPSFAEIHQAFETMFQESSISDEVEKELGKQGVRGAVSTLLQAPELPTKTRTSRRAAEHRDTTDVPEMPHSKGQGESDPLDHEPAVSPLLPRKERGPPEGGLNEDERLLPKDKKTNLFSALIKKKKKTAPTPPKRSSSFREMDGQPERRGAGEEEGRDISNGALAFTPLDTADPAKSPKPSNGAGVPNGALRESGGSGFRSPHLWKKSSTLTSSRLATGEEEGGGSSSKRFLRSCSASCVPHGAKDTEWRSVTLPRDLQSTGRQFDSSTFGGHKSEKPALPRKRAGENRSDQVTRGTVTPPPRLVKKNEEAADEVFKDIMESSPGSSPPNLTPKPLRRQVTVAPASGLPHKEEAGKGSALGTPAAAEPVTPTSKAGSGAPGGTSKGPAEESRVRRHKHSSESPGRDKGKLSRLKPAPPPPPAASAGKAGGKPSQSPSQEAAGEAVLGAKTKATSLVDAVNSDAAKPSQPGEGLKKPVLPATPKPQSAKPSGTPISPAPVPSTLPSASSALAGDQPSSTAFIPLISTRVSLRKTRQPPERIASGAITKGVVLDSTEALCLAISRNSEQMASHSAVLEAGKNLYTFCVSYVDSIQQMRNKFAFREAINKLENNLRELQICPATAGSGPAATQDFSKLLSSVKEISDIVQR
T3 sequence (Q2M2I8 whole entry): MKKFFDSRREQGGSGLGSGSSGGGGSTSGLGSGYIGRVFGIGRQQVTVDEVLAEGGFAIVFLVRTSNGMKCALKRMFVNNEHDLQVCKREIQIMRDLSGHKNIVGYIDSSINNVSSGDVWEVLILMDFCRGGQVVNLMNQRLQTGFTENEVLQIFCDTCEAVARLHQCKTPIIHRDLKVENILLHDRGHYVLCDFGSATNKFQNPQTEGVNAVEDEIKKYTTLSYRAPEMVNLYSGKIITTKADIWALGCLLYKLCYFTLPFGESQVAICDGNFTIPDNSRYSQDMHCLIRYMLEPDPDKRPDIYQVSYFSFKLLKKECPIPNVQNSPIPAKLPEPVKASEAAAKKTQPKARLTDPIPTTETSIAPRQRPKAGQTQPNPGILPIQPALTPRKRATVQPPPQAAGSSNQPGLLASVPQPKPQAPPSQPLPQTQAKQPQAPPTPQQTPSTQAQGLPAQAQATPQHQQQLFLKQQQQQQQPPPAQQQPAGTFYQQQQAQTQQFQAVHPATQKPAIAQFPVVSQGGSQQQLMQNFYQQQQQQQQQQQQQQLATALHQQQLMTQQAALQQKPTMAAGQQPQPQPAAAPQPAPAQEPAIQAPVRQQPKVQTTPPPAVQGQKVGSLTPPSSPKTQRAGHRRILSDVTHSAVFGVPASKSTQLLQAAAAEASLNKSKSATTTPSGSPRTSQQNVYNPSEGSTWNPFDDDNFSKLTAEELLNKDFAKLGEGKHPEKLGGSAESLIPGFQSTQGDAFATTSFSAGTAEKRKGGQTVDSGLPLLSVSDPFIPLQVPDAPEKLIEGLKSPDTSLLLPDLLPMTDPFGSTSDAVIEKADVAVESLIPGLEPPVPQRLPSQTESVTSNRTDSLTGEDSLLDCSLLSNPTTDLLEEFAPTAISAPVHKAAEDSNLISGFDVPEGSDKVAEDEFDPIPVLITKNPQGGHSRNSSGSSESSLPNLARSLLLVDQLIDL
T2 sequence (P42684 whole entry): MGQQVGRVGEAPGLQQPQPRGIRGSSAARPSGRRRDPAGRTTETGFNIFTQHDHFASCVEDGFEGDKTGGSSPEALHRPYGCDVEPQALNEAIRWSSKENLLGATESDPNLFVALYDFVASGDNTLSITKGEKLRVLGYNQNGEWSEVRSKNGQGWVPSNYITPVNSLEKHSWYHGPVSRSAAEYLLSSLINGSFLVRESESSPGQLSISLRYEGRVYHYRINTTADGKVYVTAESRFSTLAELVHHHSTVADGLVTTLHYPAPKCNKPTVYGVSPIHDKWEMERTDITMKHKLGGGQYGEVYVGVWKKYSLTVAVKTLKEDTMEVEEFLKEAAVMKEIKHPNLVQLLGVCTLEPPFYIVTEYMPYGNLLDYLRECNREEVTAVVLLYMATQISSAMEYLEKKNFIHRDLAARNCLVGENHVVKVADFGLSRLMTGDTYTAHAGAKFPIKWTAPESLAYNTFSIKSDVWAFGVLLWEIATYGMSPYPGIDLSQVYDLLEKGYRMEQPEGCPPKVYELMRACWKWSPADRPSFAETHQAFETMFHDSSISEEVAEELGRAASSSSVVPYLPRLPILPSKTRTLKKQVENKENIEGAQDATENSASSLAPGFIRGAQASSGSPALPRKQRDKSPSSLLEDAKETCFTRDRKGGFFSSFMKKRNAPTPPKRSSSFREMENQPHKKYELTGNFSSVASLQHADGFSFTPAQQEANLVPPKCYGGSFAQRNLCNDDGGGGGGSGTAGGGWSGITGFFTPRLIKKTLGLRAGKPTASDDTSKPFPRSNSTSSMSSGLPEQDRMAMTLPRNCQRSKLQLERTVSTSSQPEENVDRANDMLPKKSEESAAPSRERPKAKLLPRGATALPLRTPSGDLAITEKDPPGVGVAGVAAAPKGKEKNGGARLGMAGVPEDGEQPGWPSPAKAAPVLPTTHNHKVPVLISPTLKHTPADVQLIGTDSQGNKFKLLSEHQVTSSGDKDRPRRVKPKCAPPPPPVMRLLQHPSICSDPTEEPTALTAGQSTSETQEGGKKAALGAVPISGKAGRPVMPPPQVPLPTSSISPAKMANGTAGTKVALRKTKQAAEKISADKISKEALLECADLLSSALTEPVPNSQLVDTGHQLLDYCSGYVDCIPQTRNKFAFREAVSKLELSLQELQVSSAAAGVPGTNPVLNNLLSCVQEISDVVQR

SMILES | CATDS (ABL1) | CATDS (ACAD11) | CATDS (ABL2) | CATDS (AAK1) | CATDS (ACOX1) | potency estimated from few doses (AAK1) | potency estimated from few doses (ACOX1; sheet "Kinobeads Drugmatrix -nanomolar" (only nanomolar interactions), read-out: Kinobeads Drugmatrix -nanomolar: apparent Kd, ACOX1)
Cc1cn(-c2cc(NC(=O)c3ccc4c(c3)CN(c3cncnc3)C[C@@H]4C)cc(C(F)(F)F)c2)cn1 [Compound D2202-1] | 0 | 0 | 0 | 0 | 0 | – | –
CC(=O)c1cccc(NC(=O)NC2CCN(c3ccnc(Nc4ccc(F)cc4)n3)C2)c1 (stereo not drawn) [GSK1379710A] | 0 | 0 | 0 | 0 | 0 | – | –
COc1ccc(Nc2nccc(NCCNC(=O)Nc3cc(C)ccc3C)n2)cc1 [GSK1379899A] | 0 | 0 | 0 | 0 | 0 | > 1000 nM | –
CCS(=O)(=O)N1CC(CC#N)(n2cc(-c3ncnc4[nH]ccc34)cn2)C1 [Baricitinib, reference compound] | 0 | 0 | 0 | 0.1267 | 0 | – | –
COc1cc(C)c(NC(=O)CN(C)C)cc1Nc1nc(Nc2cccc(F)c2C(N)=O)c2cc[nH]c2n1 [GSK2213727A] | 0 | 0 | 0 | 0 | 0 | – | –
NC(=O)c1cccnc1COc1cc(-c2ccc(N3CCOCC3)nc2)cc2ncccc12 [BI01125081] | 0 | 0 | 0 | 0 | 0 | – | –
COc1cc2ncnc(Nc3cccc(Cl)c3F)c2cc1O[C@H]1CC[C@H]([C@@H]2NCCNC2=O)CC1 [BI00133844] | 0 | 0 | 0 | 0 | 0 | – | –
COc1cc2ncn(-c3cc(OCc4ccccc4C(F)(F)F)c(C(C)=O)s3)c2cc1OC [GSK1030059A] | 0 | 0 | 0 | 0 | 0 | – | –
O=C(Nc1c(F)cccc1F)c1cc(C(=O)c2ccccc2F)c[nH]1 [GSK1326180A] | 0 | 0 | 0 | 0 | 0 | – | –
NC(=O)c1sc(-n2cnc3ccccc32)cc1OCc1ccccc1F [GSK1024306A] | 0 | 0 | 0 | 0 | 0 | – | –
Cc1occc1-c1nc(N)c(OC[C@@H](N)Cc2c[nH]c3ccccc23)cc1-c1cc2c(C)n[nH]c2cn1 [GSK1660450B] | 0 | 0 | 0 | 0 | 0 | > 1000 nM | –
COc1cc(Nc2nccc(N3CCC(NC(=O)Nc4cccc(C(C)=O)c4)C3)n2)cc(OC)c1OC (stereo not drawn) [GSK1379753A] | 0 | 0 | 0 | 0 | 0 | – | –
COc1cc(Nc2ccnc3ccc(Br)cc23)cc(OC)c1OC [CA93.0] | 0 | 0 | 0 | 0 | 0 | – | –
Cc1ccc(NC(=O)Nc2ccccc2)cc1-c1ccc(C(=O)Nc2ccncc2)cc1 [GSK1398471A] | 0 | 0 | 0 | 0 | 0 | – | –
NCCCC(NC(=O)c1cc(Br)c(-c2ccnc3[nH]ccc23)s1)c1ccccc1 (stereo not drawn) [GSK1287544A] | 0 | 0 | 0 | 0 | 0 | – | –
CC(C)NCC(Cc1ccccc1)NC(=O)c1cc(Br)c(-c2ccnc3[nH]ccc23)s1 (stereo not drawn) [GSK1383281A] | 0 | 0 | 0 | 0 | 0 | – | –

SMILES | CATDS (ABL1) | CATDS (ACAD11) | CATDS (ABL2) | CATDS (AAK1) | CATDS (ACOX1) | potency estimated from few doses (AAK1) | potency estimated from few doses (ACOX1; sheet "Kinobeads Drugmatrix -nanomolar" (only nanomolar interactions), read-out: Kinobeads Drugmatrix -nanomolar: apparent Kd, ACOX1)
COc1cc2ncn(-c3cc(OCC4CCCCC4)c(C(N)=O)s3)c2cc1OC [GSK204559A] | 0 | 0 | 0 | 0 | 0 | – | –
COc1cc2ncnc(Nc3ccc(F)c(Cl)c3)c2cc1O[C@H]1CC[C@H](N)CC1 [BIBW3133BS] | 0 | 0 | 0 | 0 | 0 | – | –
O=c1cc(N2CCOCC2)nc2n(Cc3cccc(Cl)c3)ccn12 [GSK2296823A] | 0 | 0 | 0 | 0 | 0 | – | –
NCC1CCC(CNc2nc(NCc3ccccc3OC(F)(F)F)ncc2[N+](=O)[O-])CC1 (stereo not drawn) [BIRZ0518XX] | 0 | 0 | 0 | 0 | 0 | – | –
O=C1Nc2ccccc2/C1=C1\CCc2cc(O)ccc21 [GR105659X] | 0 | 0 | 0 | 0 | 0 | – | –
Fc1ccc(-c2nc3n(c2-c2ccncc2)CCS3)cc1 [GI98581X] | 0 | 0 | 0 | 0 | 0 | – | –
Cc1ccc(NC(=O)c2ccc(Cl)cc2)cc1-c1ccc(C(=O)Nc2ccncc2)cc1 [GSK1398467A] | 0 | 0 | 0 | 0 | 0.2266 | – | 761 nM
NC[C@H](CC1CCCCC1)NC(=O)c1cc(Br)c(-c2ccnc3[nH]ccc23)s1 [GSK1581427A] | 0 | 0 | 0 | 0 | 0 | – | –
COc1cc(Nc2ncc(F)c(Nc3ccc4c(n3)N(COP(=O)(O)O)C(=O)C(C)(C)O4)n2)cc(OC)c1OC [Fostamatinib, reference compound] | 0 | 0 | 0 | 0 | 0 | – | –
CNc1nccc(-c2ccc3c(N)n[nH]c3c2)n1 [GSK2206003A] | 0 | 0 | 0 | 0.118 | 0 | 108 nM | –
COc1cc(N2CCN(C(C)C)CC2)ccc1Nc1nc(Nc2cccc(F)c2C(=O)O)c2cc[nH]c2n1 [GSK1819799A] | 0 | 0 | 0 | 0 | 0 | – | –
Cc1ccc(NC(=O)c2cccc(N3CCCCC3)c2)cc1-c1ccc(C(=O)NCC2CC2)cc1 [GSK1917008A] | 0 | 0 | 0 | 0 | 0 | – | –
COc1cc(N2CCN(C(C)C)CC2)ccc1Nc1nc(Nc2cccc3ncccc23)c2cc[nH]c2n1 [GSK1511931A] | 0 | 0 | 0 | 0 | 0 | – | –
COc1cc2nccc(Oc3ccc(NC(=O)C4(C(=O)Nc5ccc(F)cc5)CC4)cc3)c2cc1OC [Cabozantinib, reference compound] | 0 | 0 | 0 | 0 | 0 | – | –
O=C(Nc1cccc(-c2nn3ncccc3c2-c2ccnc(Nc3ccccc3)n2)c1)c1c(F)cccc1F [GSK198271A] | 0 | 0 | 0 | 0 | 0 | – | –
